The target of test [1] is T1, human A2a adenosine receptor (Homo sapiens, UniProt P29274).
T1 construct: purchased PerkinElmer RB-HA2a; host or cells: HEK293 cell plasma membrane
Nature of the test: Ligand binding assay for adenosine A2a receptor ([3H]CGS21680, HEK293 plasma membrane). To be noted: radioligand [3H]CGS21680, HEK293 membranes, room temperature 2 hours; read-out: Ki (nM) A2a binding. As for the experimental part:
Ligand Binding Assay for Adenosine A2a Receptor
Ligand binding assay of adenosine A2a receptor was performed using plasma membrane of HEK293 cells containing human A2a adenosine receptor (PerkinElmer, RB-HA2a) and radioligand [^3H]CGS21680 (PerkinElmer, NET1021). Assay was set up in 96-well polypropylene plate in total volume of 200 µl by sequentially adding 20 µL1:20 diluted membrane, 130 µLassay buffer (50 mM Tris·HCl, pH7.4 10 mM MgCl2, 1 mM EDTA) containing [^3H] […] Nonspecific binding was determined by […] NECA. Reaction was carried out at room temperature for 2 hours before filtering through 96-well GF/C filter plate pre-soaked in 50 mM Tris·HCl, pH7.4 containing 0.3% polyethylenimine. Plates were then washed 5 times with cold 50 mM Tris·HCl, pH7.4, dried and sealed at the bottom. Microscintillation fluid 30 µl was added to each well and the top sealed. Plates were counted on Packard Topcount for [^3H]. Data was analyzed in Microsoft Excel and GraphPad Prism programs.

Test [2] has as its target T2, human adenosine A2a receptors (Homo sapiens, UniProt P29274).
T2 construct: expressed in transfected cells; host or cells: CHO-K1 cells with cAMP-inducible beta-galactosidase reporter gene
Kind of test: Adenosine A2a receptor functional assay, antagonist mode (cAMP-inducible beta-galactosidase reporter, 50 nM NECA). Format: cell-based. Conditions: CHO-K1 cells, read-out: Ki (nM) A2a antagonist function. As for the experimental part: Adenosine A2a Receptor Functional Assay
CHO-K1 cells overexpressing human adenosine A2a receptors and containing cAMP-inducible beta-galactosidase reporter gene were seeded at 40-50K/well into 96-well tissue culture plates and cultured for two days. On assay day, cells were washed once with 200 µL assay medium (F-12 nutrient mixture/0.1 % BSA). For agonist assay, adenosine A2a receptor agonist NECA was subsequently added and cell incubated at 37°C, 5% CO2 for 5 hrs before stopping reaction. In the case of antagonist assay, cells were incubated with antagonists for 5 minutes at R.T. followed by addition of 50 nM NECA. Cells were then incubated at 37°C, 5% CO2 for 5 hrs before stopping experiments by washing cells with PBS twice. 50 µL 1X lysis buffer (Promega, 5X stock solution, needs to be diluted to 1X before use) was added to each well and plates frozen at -20°C. For β-galactosidase enzyme colorimetric assay, plates were thawed out at room temperature and 50 µL 2X assay buffer (Promega) added to each well. Color was allowed to develop at 37°C for 1 h or until reasonable signal appeared. Reaction was then stopped with 150 µL 1 M sodium carbonate. […] Data was analyzed in Microsoft Excel and GraphPad Prism programs.

In test [3] the target is T3, Adenosine A1 receptor (Homo sapiens, UniProt P30542).
T3 sequence (P30542 1-326): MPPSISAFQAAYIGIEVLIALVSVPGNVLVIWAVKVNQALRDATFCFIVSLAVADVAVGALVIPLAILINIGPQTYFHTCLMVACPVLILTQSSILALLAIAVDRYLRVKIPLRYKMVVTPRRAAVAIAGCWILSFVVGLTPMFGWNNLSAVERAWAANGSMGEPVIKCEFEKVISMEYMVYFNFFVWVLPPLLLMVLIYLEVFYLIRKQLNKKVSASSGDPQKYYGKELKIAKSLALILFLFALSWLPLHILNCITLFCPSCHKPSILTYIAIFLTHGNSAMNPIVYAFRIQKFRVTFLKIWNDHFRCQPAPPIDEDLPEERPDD
Kind of test: A1 antagonist function (no method described). Format: cell-based.

Test [4] relates to C57bl/6 mice. Nature of the test: Haloperidol-induced catalepsy study in C57bl/6 mice. Conditions: orally dosed at 10 mg/kg; haloperidol 1.5 mg/kg s.c.; test 1 hour after oral dose. Format: in vivo. The procedure: Haloperidol-induced catalepsy study in C57bl/6 mice
Mature male C57bl/6 mice (9-12 week old from ACE) were housed two per cage in a rodent room. Room temperature was maintained at 64-79 degrees and humidity at 30-70% and room lighting at 12 hrs light/12 hrs dark cycle. On the study day, mice were transferred to the study room. The mice were injected subcutaneously with haloperidol (Sigma H1512, 1.0 mg/ml made in 0.3% tartaric acid, then diluted to 0.2 mg/ml with saline) or vehicle at 1.5 mg/kg, 7.5ml/kg. The mice were then placed in their home cages with access to water and food. 30 minutes later, the mice were orally dosed with vehicle (0.3% Tween 80 in saline) or compounds at 10 mg/kg, 10 ml/kg (compounds, 1mg/ml, made in 0.3% Tween 80 in saline, sonicated to obtain a uniform suspension). The mice were then placed in their home cages with access to water and food. 1 hour after oral dose, the catalepsy test was performed. A vertical metal-wire grid (1.0 cm squares) was used for the test. The mice were placed on the grid and given a few seconds to settle down and their immobility time was recorded until the mice moved their back paw(s). The mice were removed gently from the grid and put back on the grid and their immobility time was counted again. The measurement was repeated three times. The average of three measurements was used for data analysis.

The results in this text go back to EP1673354B1, “ARYLINDENOPYRIDINES AND ARYLINDENOPYRIMIDINES AND THEIR USE AS ADENOSINE A2A RECEPTOR ANTAGONISTS” (Ortho-McNeil Pharmaceutical, Inc., priority 2003, dated 2005).

T1 sequence (P29274 whole entry): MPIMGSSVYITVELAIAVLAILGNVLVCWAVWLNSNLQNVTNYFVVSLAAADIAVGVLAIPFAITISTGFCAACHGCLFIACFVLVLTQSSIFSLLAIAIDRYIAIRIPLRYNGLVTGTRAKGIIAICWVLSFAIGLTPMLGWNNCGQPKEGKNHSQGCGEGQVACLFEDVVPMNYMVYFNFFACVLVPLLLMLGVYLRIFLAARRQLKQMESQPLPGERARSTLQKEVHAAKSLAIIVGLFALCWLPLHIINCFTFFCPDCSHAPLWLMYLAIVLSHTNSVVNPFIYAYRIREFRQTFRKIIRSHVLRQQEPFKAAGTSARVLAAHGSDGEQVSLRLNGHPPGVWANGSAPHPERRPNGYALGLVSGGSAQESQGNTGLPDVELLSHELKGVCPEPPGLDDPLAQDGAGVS
T2 sequence (P29274 whole entry): as above

In general, Ki refers to the equilibrium dissociation constant of an inhibitor or competing ligand from its target. For `CN(C)CCOC(=O)c1c(N)nc(-c2ccco2)c2c1-c1ccccc1C2=O` [Compound 70, 9H-indeno[2,1-c]pyridine-4-carboxylic acid, 3-amino-1-furan-2-yl-9-oxo-, 2-dimethylamino-ethyl ester], the inhibition constant Ki came out at 9.89 nM in test [1], 0.44 nM in test [2] and 20.1 nM in test [3]. Also, the “inhibition of haloperidol-induced catalepsy” value in test [4] was determined as 87%.
Take `Nc1nc(-c2ccco2)c2c(n1)-c1ccccc1C2=O` [Compound 3, 2-amino-4-furan-2-yl-indeno[1,2-d]pyrimidin-5-one]: in test [3], the Ki was 0.288 nM. For the same molecule, the “inhibition of haloperidol-induced catalepsy” value in test [4] came to 90%.
With `CN(C)CCCOC(=O)c1c(N)nc(-c2ccccc2)c2c1-c1ccccc1C2=O` [Compound 87], the inhibition constant Ki is 98.9 nM in test [1], 39.5 nM in test [2] and more than 300 nM in test [3].
For `CC(C)Cc1nc(N)c(C#N)c2c1C(=O)c1ccccc1-2` [Compound 86], in that order: 244 nM, more than 1000 nM and 39.3 nM.
For `Nc1nc(-c2ccc(F)c(F)c2)c2c(n1)-c1ccccc1C2=O` [Compound 28], in that order: 48.9 nM, 3.53 nM and 5.86 nM.
Regarding `Nc1nc(-c2ccco2)c2c(c1C(=O)O)-c1ccccc1C2=O` [Compound 69], the inhibitory constant (Ki) is 2260 nM in test [1], 90.2 nM in test [2] and more than 1000 nM in test [3].
For the molecule `N#Cc1c(N)nc(-c2ccsc2)c2c1-c1ccccc1C2=O` [Compound 73], the Ki was 4.92 nM in test [1], 0.06 nM in test [2] and 9.7 nM in test [3].
For `Nc1nc(-c2ccccc2)c2c(n1)-c1cccc(CN3CCCC(CO)C3)c1C2=O` (stereo not drawn) [Compound 57], in that order: 34 nM, 15.9 nM and 39.3 nM.
The like results for `Nc1nc(-c2ccccc2)c2c(c1C(=O)OCCCN1CCOCC1)-c1ccccc1C2=O` [Compound 84] were, in that order, 174 nM, 24.7 nM and 27.4 nM.
The like results for `COc1ccccc1-c1nc(N)nc2c1C(=O)c1ccccc1-2` [Compound 12] were, in that order, 33.5 nM, 32.5 nM and 172 nM.
Regarding `CCN(CC)CCNc1nc(-c2ccccc2)c2c(n1)-c1ccccc1C2=O` [Compound 27], the values for the Ki in test [1], in test [2] and in test [3] were 147 nM, 68.3 nM and more than 1000 nM, respectively.
For `Nc1nc(-c2ccncc2)c2c(n1)-c1ccccc1C2=O` [Compound 6], in that order: 3.9 nM, 4.56 nM and 16.4 nM.
